In experiment [1] the target is T1, Tyrosine-protein kinase ITK/TSK (Homo sapiens, UniProt Q08881).
T1 sequence (Q08881 whole entry): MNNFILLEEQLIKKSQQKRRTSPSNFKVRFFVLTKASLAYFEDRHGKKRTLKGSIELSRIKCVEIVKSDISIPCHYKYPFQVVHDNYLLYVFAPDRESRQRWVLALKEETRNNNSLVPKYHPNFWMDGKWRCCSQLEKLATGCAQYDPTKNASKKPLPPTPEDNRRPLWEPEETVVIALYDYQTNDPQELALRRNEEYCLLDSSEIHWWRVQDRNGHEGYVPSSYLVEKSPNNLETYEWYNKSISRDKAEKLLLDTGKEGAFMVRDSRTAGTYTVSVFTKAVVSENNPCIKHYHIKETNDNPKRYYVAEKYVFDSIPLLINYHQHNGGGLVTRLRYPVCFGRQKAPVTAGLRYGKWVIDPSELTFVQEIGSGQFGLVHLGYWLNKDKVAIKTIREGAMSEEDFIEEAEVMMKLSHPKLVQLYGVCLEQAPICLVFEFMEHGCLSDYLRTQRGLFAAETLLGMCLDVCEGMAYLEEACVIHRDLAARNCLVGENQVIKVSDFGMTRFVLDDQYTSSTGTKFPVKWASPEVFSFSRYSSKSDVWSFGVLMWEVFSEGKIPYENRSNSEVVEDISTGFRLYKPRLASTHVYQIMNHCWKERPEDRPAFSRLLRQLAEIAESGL
Nature of the experiment: Inhibition of recombinant human FLAG-tagged ITK using biotinylated GST-SAM68 as substrate after 30 mins.

Experiment [2] concerns the target T2, Aurora kinase B (Homo sapiens, UniProt Q96GD4). As to the kind of experiment: Inhibition of Aurora-B (unknown origin) using 5FAM-PKAtide as substrate after 120 mins.
Experiment [3] addresses T3, Tyrosine-protein kinase Lck (Homo sapiens, UniProt P06239). As to the kind of experiment: Inhibition of LCK (unknown origin) using tamra-p34cdc-derived peptide as substrate after 30 mins.
Experiment [4] has as its system PBMC. Nature of the experiment: Inhibition of cytostim-induced IFNgamma production in human PBMC treated 1 hr before cytostim stimulation measured after 18 hrs by MSD assay. It counts as functional, cell-based.
The target in experiment [5] is T1, Tyrosine-protein kinase ITK/TSK. Nature of the experiment: Inhibition of ITK (unknown origin).
In experiment [6] the target is T2, Aurora kinase B. As to the kind of experiment: Inhibition of Aurora-B (unknown origin).
Experiment [7] addresses T3, Tyrosine-protein kinase Lck. As to the kind of experiment: Inhibition of LCK (unknown origin).

T3 sequence (P06239 whole entry): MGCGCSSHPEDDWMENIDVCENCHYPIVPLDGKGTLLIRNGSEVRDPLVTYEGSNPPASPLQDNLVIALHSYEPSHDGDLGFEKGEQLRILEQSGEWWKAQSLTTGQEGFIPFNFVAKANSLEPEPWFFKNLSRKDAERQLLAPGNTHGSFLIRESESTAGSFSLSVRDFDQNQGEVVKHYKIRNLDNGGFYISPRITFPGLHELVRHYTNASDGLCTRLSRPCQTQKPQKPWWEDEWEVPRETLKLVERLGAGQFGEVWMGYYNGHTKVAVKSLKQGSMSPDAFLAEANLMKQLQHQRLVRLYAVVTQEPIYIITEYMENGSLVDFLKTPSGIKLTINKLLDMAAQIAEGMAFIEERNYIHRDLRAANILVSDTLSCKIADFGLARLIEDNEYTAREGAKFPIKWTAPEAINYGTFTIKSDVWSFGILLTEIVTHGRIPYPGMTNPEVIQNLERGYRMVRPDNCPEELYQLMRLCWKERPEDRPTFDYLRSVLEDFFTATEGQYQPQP
T2 sequence (Q96GD4 whole entry): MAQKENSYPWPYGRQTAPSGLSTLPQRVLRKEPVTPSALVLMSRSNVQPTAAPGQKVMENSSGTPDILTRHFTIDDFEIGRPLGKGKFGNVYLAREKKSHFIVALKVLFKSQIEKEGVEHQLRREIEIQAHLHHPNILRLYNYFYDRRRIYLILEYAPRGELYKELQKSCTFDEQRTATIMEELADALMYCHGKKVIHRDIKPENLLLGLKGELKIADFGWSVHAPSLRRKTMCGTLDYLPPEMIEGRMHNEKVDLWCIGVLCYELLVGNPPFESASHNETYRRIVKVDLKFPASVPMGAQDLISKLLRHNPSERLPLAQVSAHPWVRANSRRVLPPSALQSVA

Take `COc1ccc2nc(Nc3cc(C(F)(F)c4ccc(F)cc4)nc(N4CCC[C@H]4C(N)=O)n3)sc2c1`: the Ki (commonly a measure of affinity in units of concentration, obtained from inhibition or displacement) in experiment [1] is 3980 nM; in experiment [2], greater than 20000 nM; in experiment [3], 2510 nM.

Consider `COc1ccc2nc(Nc3cc(Cc4ccccc4)nc(N[C@H]4CC[C@H](O)CC4)n3)sc2c1`, for which the IC50 (commonly the concentration that inhibits the measured activity by half) in experiment [4] was 25.1 nM. Also, the Ki is 3.98 nM in experiment [1], 501 nM in experiment [2] and 126 nM in experiment [3].

With `Cc1csc(Nc2cc(Cc3ccccc3)nc(N[C@H]3CC[C@H](O)CC3)n2)n1`, the results for the Ki in experiment [1], in experiment [2] and in experiment [3] were 158 nM, greater than 20000 nM and 3160 nM, respectively.

Consider `Cc1cnc(Nc2cc(Cc3ccccc3)nc(N[C@H]3CC[C@H](O)CC3)n2)s1`, for which the Ki in experiment [1] is 2 nM; in experiment [2] it was 0.501 nM; in experiment [3], 20 nM.

For `Cc1cc2nc(Nc3cc(Cc4ccccc4)nc(N[C@H]4CC[C@H](O)CC4)n3)sc2cc1C`, the Ki in experiment [1] is greater than 10000 nM; in experiment [2] it was 20000 nM; in experiment [3] it was greater than 25100 nM.

Take `O[C@H]1CC[C@H](Nc2nc(Cc3ccccc3)cc(Nc3nc4ccccc4s3)n2)CC1`: the Ki in experiment [1] was 1 nM; in experiment [2], 398 nM; in experiment [3], 316 nM.

As to `Cc1ccc2nc(Nc3cc(Cc4ccccc4)nc(N[C@H]4CC[C@H](O)CC4)n3)sc2c1`, the figures for the Ki in experiment [1], in experiment [2] and in experiment [3] were 0.398 nM, 316 nM and 251 nM, respectively.

`O[C@H]1CC[C@H](Nc2nc(Cc3ccccc3)cc(Nc3nc4ccc(Cl)cc4s3)n2)CC1`: the Ki is 0.316 nM in experiment [1], 251 nM in experiment [2] and 79.4 nM in experiment [3].

Regarding `O[C@H]1CC[C@H](Nc2nc(Cc3ccccc3)cc(Nc3nc4ccc(C(F)(F)F)cc4s3)n2)CC1`, the inhibitory constant (Ki) in experiment [1] was 12.6 nM; in experiment [2], 251 nM; in experiment [3] it was 50.1 nM.

In the case of `N#Cc1ccc2nc(Nc3cc(Cc4ccccc4)nc(N[C@H]4CC[C@H](O)CC4)n3)sc2c1`, the Ki is 0.251 nM in experiment [1], 79.4 nM in experiment [2] and 63.1 nM in experiment [3].

Take `COc1ccc2nc(Nc3cc(Cc4ccccc4)nc(N[C@H]4CC[C@H](O)CC4)n3)sc2n1`: the results for the Ki in experiment [1], in experiment [2] and in experiment [3] were 0.2 nM, 316 nM and 79.4 nM, respectively.

Take `O[C@H]1CC[C@H](Nc2nc(Cc3ccccc3)cc(Nc3nc4cccnc4s3)n2)CC1`: the Ki in experiment [1] is 0.251 nM; in experiment [2], 100 nM; in experiment [3], 100 nM.

With `CCc1ccc2nc(Nc3cc(Cc4ccccc4)nc(N[C@H]4CC[C@H](O)CC4)n3)sc2n1`, the Ki was 1.58 nM in experiment [1], 63.1 nM in experiment [2] and 100 nM in experiment [3].

For the molecule `NC(=O)C1CCN1c1nc(Cc2ccccc2)cc(Nc2cc(C3CCC3)n[nH]2)n1` (configuration not stated), the Ki in experiment [5] was 15.8 nM; in experiment [6], 79.4 nM; in experiment [7], 501 nM.

With `CS(=O)(=O)N1CCOC(CNc2nc(Cc3ccccc3)cc(Nc3cc(-c4ccco4)n[nH]3)n2)C1` (configuration not stated), the results for the Ki in experiment [5], in experiment [6] and in experiment [7] were 6.31 nM, 316 nM and 501 nM, respectively.

For the molecule `O[C@H]1CC[C@H](Nc2nc(Nc3n[nH]c4ccccc34)cc(C(F)(F)c3ccc(F)cc3)n2)CC1`, the Ki in experiment [1] was 794 nM; in experiment [2], 631 nM; in experiment [3], 15800 nM.

Regarding `O[C@H]1CC[C@H](Nc2nc(Nc3cc4ccccc4cn3)cc(C(F)(F)c3ccc(F)cc3)n2)CC1`, the Ki in experiment [1] is 6.31 nM; in experiment [2], 79.4 nM; in experiment [3], 100 nM.

Consider `O[C@H]1CC[C@H](Nc2nc(Nc3ccc(Oc4ccc(F)cc4)cn3)cc(C(F)(F)c3ccc(F)cc3)n2)CC1`, for which the Ki in experiment [1] was 501 nM; in experiment [2] it was 5010 nM; in experiment [3], 501 nM.

With `O[C@H]1CC[C@H](Nc2nc(Nc3ncc(Cc4ccccc4)s3)cc(C(F)(F)c3ccc(F)cc3)n2)CC1`, the Ki is 63.1 nM in experiment [1], 5.01 nM in experiment [2] and 100 nM in experiment [3].

Take `NC(=O)[C@@H]1CCCN1c1nc(Nc2ncc(Cc3ccccc3)s2)cc(C(F)(F)c2ccc(F)cc2)n1`: the Ki is greater than 10000 nM in experiment [1], 3160 nM in experiment [2] and 316 nM in experiment [3].

Consider `COc1ccc2nc(Nc3cc(C(F)(F)c4ccc(F)cc4)nc(N[C@H]4CC[C@H](O)CC4)n3)sc2n1`, for which the Ki in experiment [1] is 15.8 nM; in experiment [2], greater than 20000 nM; in experiment [3], 200 nM.

On to `COc1ccc2nc(Nc3cc(C(F)(F)c4ccc(F)cc4)nc(N[C@H]4CC[C@H](O)CC4)n3)sc2c1`, for which the inhibitory constant (Ki) in experiment [1] was 20 nM; in experiment [2], 2510 nM; in experiment [3], 251 nM.

The values above are taken from ChEMBL document CHEMBL2440060, “Identification of a Novel and Selective Series of Itk Inhibitors via a Template-Hopping Strategy” (ACS Med Chem Lett, 2013).
